These molecules were tested against T1, acetylcholine muscarinic M1 receptor (Homo sapiens, UniProt P11229) (assay: muscarinic FLIPR assay: intracellular calcium in CHOnfat/hM1 cells, potentiation of EC20 acetylcholine). Conditions: not given.
T1 construct: expressed in transfected cells; host or cells: CHOnfat (CHO cells, NFAT reporter background) expressing hM1
T1 sequence (P11229 1-460): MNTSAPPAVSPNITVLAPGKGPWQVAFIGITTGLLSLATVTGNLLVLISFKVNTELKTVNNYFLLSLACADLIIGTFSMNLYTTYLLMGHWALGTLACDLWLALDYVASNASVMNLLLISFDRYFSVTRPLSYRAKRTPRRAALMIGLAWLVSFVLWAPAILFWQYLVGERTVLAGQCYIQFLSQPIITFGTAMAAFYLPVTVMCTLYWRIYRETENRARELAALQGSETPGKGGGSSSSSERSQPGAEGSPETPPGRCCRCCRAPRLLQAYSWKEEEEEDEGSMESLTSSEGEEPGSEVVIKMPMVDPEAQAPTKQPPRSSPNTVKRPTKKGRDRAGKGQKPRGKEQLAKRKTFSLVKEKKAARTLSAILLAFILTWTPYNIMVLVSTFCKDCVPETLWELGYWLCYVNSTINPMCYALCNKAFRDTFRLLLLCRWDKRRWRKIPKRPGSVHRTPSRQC
Format: cell-based
Protocol: The assay studies the effect of one or several concentrations of test compounds on basal or acetylcholine-stimulated Ca^2+ levels using FLIPR.
Compounds are prepared and subjected to a preincubation period of 4 min. Thereafter, a single EC20 concentration of acetylcholine is added to each well (3 nM final). The intracellular Ca^2+ level of each sample is measured and compared to an acetylcholine control to determine any modulatory activity.
Cells: CHOnfat/hM1, hM2, hM3 or hM4 cells are plated 24 hr before the assay at a density of 18,000 cells/well (100 μL) in a 384 well plate. CHOnfat/hM1 and CHOnfat/hM3 Growth Medium: 90% DMEM (Hi Glucose); 10% HI FBS; 2 mM L-glutamine; 0.1 mM NEAA; Pen-Strep; and 1 mg/ml Geneticin, are added. For M2Gqi5CHOnfat and M4Gqi5CHOnfat cells, an additional 600 ug/ml hygromycin is added.
Equipment: 384 well plate, 120 μL addition plate; 96-well Whatman 2 ml Uniplate Incubator, 37° C., 5% CO2; Skatron EMBLA-384 Plate Washer; Multimek Pipetting System; Genesis Freedom 200 System; Mosquito System; Temo Nanoliter Pipetting System; and FLIPR^384 Fluorometric Imaging Plate Reader System are used.
Buffers. Assay Buffer: Hanks Balanced Salt Solution, with 20 mM Hepes, 2.5 mM Probenecid (Sigma P-8761) first dissolved in 1N NaOH, 1% Bovine Serum Albumin (Sigma A-9647). Dye Loading Buffer: Assay Buffer plus 1% Fetal Bovine Serum and Fluo-4AM/Pluronic Acid Mixture. 2 mM Fluo-4AM ester stock in DMSO (Molecular Probes F-14202) Concentration of 2 uM in buffer for a final concentration of 1 μM in Assay. 20% Pluronic Acid Solution stock, with concentration of 0.04% in Buffer, 0.02% in Assay.
65 μL of 2 mM Fluo-4AM are mixed with 130 μL of 20% Pluronic Acid. The resulting solution and 650 μL FBS is added to the assay buffer for a total volume of 65 mL. Positive Controls: 4-Br-A23187: 10 mM in DMSO; final concentration 10 μM. Acetylcholine: 10 mM in water, working stock at both 20 uM and 30 uM in assay buffer, final concentration of 10 μM. This is used to check the maximum stimulation of the CHOK1/hM1 cells. 20 uM (2×) acetylcholine is added in the preincubation part of the assay, and the 30 uM (3×) stock is added in the second part. (EC20)Acetylcholine: 10 mM in water, working stock of 9 nM (3×), and final concentration in assay is 3 nM. This is used after the preincubation with test compounds. Addition of the EC20) Acetylcholine to each well with a test compound will ascertain any modulator activity. 24 wells contain 3 nM Acetylcholine alone as a control.
Determining Activity of Putative Compounds:
Screening Plate Compounds are titrated in 96-well plates (columns 2-11), 100% DMSO, started at a concentration of 15 mM (150× stock concentration), and 3-fold serial dilutions using Genesis Freedom200 System. Four 96-well plates are combined into a 384-well plate using Mosquito Nanoliter Pipetting System by transferring 1 ul of serial diluted compounds to each well, and 1 mM acetylcholine (100× stock concentration) were added as a control. Using Temo, 49 μl assay buffer is added to each well of the 384-well plate right before assay.
In a 96-well Whatman 2 ml Uniplate, 9 nM Acetylcholine (3×) is pipetted into wells corresponding to the screening compounds, and into control wells. The 30 uM acetylcholine control (3×) is added into control wells, and the 3× agonist plate is transferred into a 384 well plate.
Cells are washed three times with 100 μL of buffer, leaving 30 μL of buffer in each well. Using Multimek, 30 μL of Dye Loading Buffer is added into each well and incubated at […], 5% CO2 for up to one hr.
After 60 min, the cells are washed three times with 100 μL of buffer, leaving 30 μL of buffer in each well. The cell plate, screening plate, and agonist addition plates are placed on the platform in the FLIPR and the door closed. A signal test to check background fluorescence and basal fluorescence signal is performed. Laser intensity is adjusted if necessary. […]

First: N#CC1(c2ccccc2)CCN(Cc2cc(C(=O)O)c(=O)n3ccccc23)CC1 [Example 3]
Second: Cc1cccc(C2(C#N)CCN(Cc3cc(C(=O)O)c(=O)n4ccccc34)CC2)c1 [Example 8]
The EC50 of the first is 1.7-fold higher: 152 nM for the first, 87 nM for the second. The second is the more potent here.

Compared with COc1ccccc1C1(C#N)CCN(Cc2cc(C(=O)O)c(=O)n3ccccc23)CC1 [Example 10], N#CC1(c2nc3ccccc3s2)CCN(Cc2cc(C(=O)O)c(=O)n3ccccc23)CC1 [Example 45] is 1.8-fold lower in EC50: 164 nM for the first, 91 nM for the second.

Compared with N#CC1(c2cccc(Cl)n2)CCN(Cc2cc(C(=O)O)c(=O)n3ccccc23)CC1 [Example 28], N#CC1(c2cccc(F)c2)CCN(Cc2cc(C(=O)O)c(=O)n3ccccc23)CC1 [Example 46, 1-{[4-cyano-4-(3-fluorophenyl)piperidin-1-yl]methyl}-4-oxo-4H-quinolizine-3-carboxylic acid] is 4.2-fold higher in EC50: 133 nM for the first, 562 nM for the second. The first is the more potent here.

Work on N#CC1(c2cccnc2)CCN(Cc2cc(C(=O)O)c(=O)n3ccccc23)CC1 [Example 47, 1-[(4-cyano-4-pyridin-3-ylpiperidin-1-yl)methyl]-4-oxo-4H-quinolizine-3-carboxylic acid] yielded an EC50 of 363 nM.

Same assay, conditions: CHOnfat/hM1 cells, FLIPR, 4 min preincubation, then EC20 acetylcholine (3 nM final); read-out: IP Value (inflection point)

First: N#CC1(c2cnc3ccccc3n2)CCN(Cc2cc(C(=O)O)c(=O)n3ccccc23)CC1 [Example 42]
Second: C=Cc1ccc(C2(C#N)CCN(Cc3cc(C(=O)O)c(=O)n4ccccc34)CC2)nc1 [Example 50, 1-{[4-cyano-4-(5-vinylpyridin-2-yl)piperidine-1-yl]methyl}-4-oxo-4H-quinolizine-3-carboxylic acid]
The EC50 of the first is 3.1-fold higher: 1240 nM for the first, 403 nM for the second. The second is the more potent here.

Going from N#CC1(c2ncccc2Br)CCN(Cc2cc(C(=O)O)c(=O)n3ccccc23)CC1 [Example 48, 1-{[4-(3-bromopyridin-2-yl)-4-cyanopiperidin-1-yl]methyl}-4-oxo-4H-quinolizine-3-carboxylic acid] to C=Cc1cccnc1C1(C#N)CCN(Cc2cc(C(=O)O)c(=O)n3ccccc23)CC1 [Example 49, 1-{[4-cyano-4-(3-vinylpyridin-2-yl)piperidin-1-yl]methyl}-4-oxo-4H-quinolizine-3-carboxylic acid], the EC50 rises from 3400 nM to 6300 nM (1.9-fold).

Source: US8258135B2, “Quinolizidinone M1 receptor positive allosteric modulators” (Merck Sharp & Dohme Corp., priority 2007, dated 2012)
